Experimental data as given in US20260297118A1, “SUBSTITUTED PYRIMIDINONE AND AZAPYRIMIDINONE COMPOUNDS, COMPOSITIONS, AND USES THEREOF” (LAKEWOOD AMEDEX, INC., priority 2023, published 2026).

Key:
Type in all cases: cell-based
M. morganii CDC-0519 = assay: MIC, broth microdilution, M. morganii CDC-0519; set-up: unit not given beside the values; conditions: M. morganii CDC-0519, Gram −ve; pH 3; 18 to 24 hours
Procedure: (§1) MIC testing is conducted using the broth (Mueller Hinton Broth) microdilution procedures relevant to each organism group as established by the Clinical and Laboratory Standards Institute (CLSI; 3-7). MIC plates are prepared in accordance with CLSI (3-7). To prepare the test plates, automated liquid handlers are used to conduct serial dilutions and liquid transfers. Automated liquid handlers utilized in this study include the Multidrop 384 (Labsystems, Helsinki, Finland) and the Biomek 2000 (Beckman Coulter, Fullerton CA). The solution is diluted to desired pH using 1 M Citric Acid or 1 M NaOH buffer. A standardized inoculum of each test organism is prepared per CLSI methods (3, 5-7) to equal a 0.5 McFarland standard in the appropriate media followed by an additional 1:20 dilution (1:10 for anaerobes).
(§2) The plates are then inoculated with 10 μL of the diluted 0.5 McFarland suspension using the Biomek 2000 from low to high drug concentration, resulting in a final concentration of approximately 5×10^5 CFU/mL per well. An un-inoculated plate is incubated for the purpose of assessing solubility of the drug in the test media. The plates are stacked 3 to 4 high, covered with a sterile lid on the top plate, and incubated for 18 to 24 hours according to CLSI. The MIC is recorded as the lowest concentration of respective compound that inhibited visible growth of the organism.

E. faecalis MMX-3353 = assay: MIC, broth microdilution, E. faecalis MMX-3353; conditions: E. faecalis MMX-3353, Gram +ve; pH 3; 18 to 24 hours
Procedure: as §1, §2

[1] = tested on: A. radioresistens MMX-8551; assay: MIC, broth microdilution, A. radioresistens MMX-8551; set-up: unit not given beside the values; conditions: A. radioresistens MMX-8551, Gram −ve; pH 3; 18 to 24 hours
Procedure: as §1, §2

P. aeruginosa ATCC-27853 = assay: MIC, broth microdilution, P. aeruginosa ATCC-27853; set-up: unit not given beside the values; conditions: P. aeruginosa ATCC-27853, Gram −ve; pH 3; 18 to 24 hours
Procedure: as §1, §2

E. coli ATCC-25922 = assay: MIC, broth microdilution, E. coli ATCC-25922; set-up: unit not given beside the values; conditions: E. coli ATCC-25922, Gram −ve; pH 3; 18 to 24 hours
Procedure: as §1, §2

E. coli MMX-8870 = assay: MIC, broth microdilution, E. coli MMX-8870; conditions: E. coli MMX-8870, Gram −ve; pH 3; 18 to 24 hours
Procedure: as §1, §2

Candida albicans (22972) = assay: MIC, broth microdilution, Candida albicans (22972); conditions: pH 3, Mueller Hinton Broth, 18 to 24 hours, read-out: MIC
Procedure: as §1, §2

S. pyogenes ATCC-49399 = assay: MIC, broth microdilution, S. pyogenes ATCC-49399; set-up: unit not given beside the values; conditions: S. pyogenes ATCC-49399, Gram +ve; pH 3; 18 to 24 hours
Procedure: as §1, §2

K. pneumoniae ATCC-43816 = assay: MIC, broth microdilution, K. pneumoniae ATCC-43816; set-up: unit not given beside the values; conditions: K. pneumoniae ATCC-43816, Gram −ve; pH 3; 18 to 24 hours
Procedure: as §1, §2

[2] = tested on: K. pneumoniae ATCC BAA-2146; assay: MIC, broth microdilution, K. pneumoniae ATCC BAA-2146; set-up: unit not given beside the values; conditions: K. pneumoniae ATCC BAA-2146, Gram −ve; pH 3; 18 to 24 hours
Procedure: as §1, §2

[3] = tested on: S. dysgalactiae ATCC-6644; assay: MIC, broth microdilution, S. dysgalactiae ATCC-6644; set-up: unit not given beside the values; conditions: S. dysgalactiae ATCC-6644, Gram +ve; pH 3; 18 to 24 hours
Procedure: as §1, §2

E. faecium MMX-3355 = assay: MIC, broth microdilution, E. faecium MMX-3355; set-up: unit not given beside the values; conditions: E. faecium MMX-3355, Gram +ve; pH 3; 18 to 24 hours
Procedure: as §1, §2

E. faecium ATCC-35667 = assay: MIC, broth microdilution, E. faecium ATCC-35667; conditions: E. faecium ATCC-35667, Gram +ve; pH 3; 18 to 24 hours
Procedure: as §1, §2

H. influenzae ATCC-49247 = assay: MIC, broth microdilution, H. influenzae ATCC-49247; set-up: unit not given beside the values; conditions: H. influenzae ATCC-49247, Gram −ve; pH 3; 18 to 24 hours
Procedure: as §1, §2

S. aureus ATCC-29213 = assay: MIC, broth microdilution, S. aureus ATCC-29213; set-up: unit not given beside the values; conditions: S. aureus ATCC-29213, Gram +ve; pH 3; 18 to 24 hours
Procedure: as §1, §2

[4] = tested on: S. saprophyticus ATCC-49907; assay: MIC, broth microdilution, S. saprophyticus ATCC-49907; set-up: unit not given beside the values; conditions: S. saprophyticus ATCC-49907, Gram +ve; pH 3; 18 to 24 hours
Procedure: as §1, §2

P. mirabilis CDC-0155 = assay: MIC, broth microdilution, P. mirabilis CDC-0155; set-up: unit not given beside the values; conditions: P. mirabilis CDC-0155, Gram −ve; pH 3; 18 to 24 hours
Procedure: as §1, §2

E. faecalis ATCC-29212 = assay: MIC, broth microdilution, E. faecalis ATCC-29212; set-up: unit not given beside the values; conditions: E. faecalis ATCC-29212, Gram +ve; pH 3; 18 to 24 hours
Procedure: as §1, §2

C. striatum ATCC-6940 = assay: MIC, broth microdilution, C. striatum ATCC-6940; conditions: C. striatum ATCC-6940, Gram +ve; pH 3; 18 to 24 hours
Procedure: as §1, §2

E. cloacae ATCC BAA-2468 = assay: MIC, broth microdilution, E. cloacae ATCC BAA-2468; set-up: unit not given beside the values; conditions: E. cloacae ATCC BAA-2468, Gram −ve; pH 3; 18 to 24 hours
Procedure: as §1, §2

S. aureus ATCC -3591 = assay: MIC, broth microdilution, S. aureus ATCC -3591; set-up: unit not given beside the values; conditions: S. aureus ATCC -3591, Gram +ve; pH 3; 18 to 24 hours
Procedure: as §1, §2

[5] = tested on: Staphylococcus aureus (43330); assay: MIC, broth microdilution, Staphylococcus aureus (43330); conditions: pH 3, Mueller Hinton Broth, 18 to 24 hours, read-out: MIC
Procedure: as §1, §2

Escherichia coli (25922) = assay: MIC, broth microdilution, Escherichia coli (25922); conditions: pH 3, Mueller Hinton Broth, 18 to 24 hours, read-out: MIC
Procedure: as §1, §2

C. freundii CDC-0157 = assay: MIC, broth microdilution, C. freundii CDC-0157; set-up: unit not given beside the values; conditions: C. freundii CDC-0157, Gram −ve; pH 3; 18 to 24 hours
Procedure: as §1, §2

[6] = tested on: S. haemolyticus ATCC-29970; assay: MIC, broth microdilution, S. haemolyticus ATCC-29970; conditions: S. haemolyticus ATCC-29970, Gram +ve; pH 3; 18 to 24 hours
Procedure: as §1, §2

S. agalactiae ATCC-13813 = assay: MIC, broth microdilution, S. agalactiae ATCC-13813; set-up: unit not given beside the values; conditions: S. agalactiae ATCC-13813, Gram +ve; pH 3; 18 to 24 hours
Procedure: as §1, §2

[7] = tested on: Pseudomonas aeruginosa (27853); assay: MIC, broth microdilution, Pseudomonas aeruginosa (27853); conditions: pH 3, Mueller Hinton Broth, 18 to 24 hours, read-out: MIC
Procedure: as §1, §2

A. baumannii ATCC-19606 = assay: MIC, broth microdilution, A. baumannii ATCC-19606; set-up: unit not given beside the values; conditions: A. baumannii ATCC-19606, Gram −ve; pH 3; 18 to 24 hours
Procedure: as §1, §2

[8] = tested on: Pseudomonas aeruginosa (0103); assay: MIC, broth microdilution, Pseudomonas aeruginosa (0103); conditions: pH 4-5, 18 to 24 hours
Procedure: as §1, §2

[9] = tested on: Pseudomonas aeruginosa (6326); assay: MIC, broth microdilution, Pseudomonas aeruginosa (6326); conditions: pH 4-5, 18 to 24 hours
Procedure: as §1, §2

Escherichia coli (6260) = assay: MIC, broth microdilution, Escherichia coli (6260); conditions: pH 4-5, 18 to 24 hours
Procedure: as §1, §2

Escherichia coli (6259) = assay: MIC, broth microdilution, Escherichia coli (6259); conditions: pH 4-5, 18 to 24 hours
Procedure: as §1, §2

Escherichia coli (6258) = assay: MIC, broth microdilution, Escherichia coli (6258); conditions: pH 4-5, 18 to 24 hours
Procedure: as §1, §2

[10] = tested on: Pseudomonas aeruginosa (6160); assay: MIC, broth microdilution, Pseudomonas aeruginosa (6160); conditions: pH 4-5, 18 to 24 hours
Procedure: as §1, §2

[11] = tested on: Pseudomonas aeruginosa (6328); assay: MIC, broth microdilution, Pseudomonas aeruginosa (6328); conditions: pH 4-5, 18 to 24 hours
Procedure: as §1, §2

Escherichia coli (6098) = assay: MIC, broth microdilution, Escherichia coli (6098); conditions: pH 4-5, 18 to 24 hours
Procedure: as §1, §2

[12] = tested on: Pseudomonas aeruginosa (6234); assay: MIC, broth microdilution, Pseudomonas aeruginosa (6234); conditions: pH 4-5, 18 to 24 hours
Procedure: as §1, §2

Escherichia coli (0102) = assay: MIC, broth microdilution, Escherichia coli (0102); conditions: pH 4-5, 18 to 24 hours
Procedure: as §1, §2

| SMILES | MIC (M. morganii CDC-0519) | MIC (E. faecalis MMX-3353) | MIC [1] | MIC (P. aeruginosa ATCC-27853) | MIC (E. coli ATCC-25922) | MIC (E. coli MMX-8870) | MIC (Candida albicans (22972)) [mg/mL] | MIC (S. pyogenes ATCC-49399) | MIC (K. pneumoniae ATCC-43816) | MIC [2] | MIC [3] | MIC (E. faecium MMX-3355) | MIC (E. faecium ATCC-35667) | MIC (H. influenzae ATCC-49247) | MIC (S. aureus ATCC-29213) | MIC [4] | MIC (P. mirabilis CDC-0155) | MIC (E. faecalis ATCC-29212) | MIC (C. striatum ATCC-6940) | MIC (E. cloacae ATCC BAA-2468) | other results |
| --- | --- | --- | --- | --- | --- | --- | --- | --- | --- | --- | --- | --- | --- | --- | --- | --- | --- | --- | --- | --- | --- |
| CCCCOP(=O)(O)OC[C@H]1O[C@@H](n2ccc(N(C)C)nc2=O)[C@H](OC)[C@@H]1O [LAK-021, (2R,3S,4R,5R)-5-(4-N,N-dimethylamino-2-oxopyrimidin-1(2H)-yl)-3-hydroxy-4-methoxy-tetrahydrofuran-2-methyl butyl phosphate] | 1.56 | 3.13 | 1.56 | 0.78 | 0.78 | 1.56 | > 50 | 0.78 | 1.56 | 1.56 | 0.78 | 3.13 | 3.13 | 0.39 | 3.13 | 1.56 | 1.56 | 3.13 | 0.78 | 1.56 | MIC (S. aureus ATCC -3591): 6.25; MIC [5]: 4.5 mg/mL; MIC (Escherichia coli (25922)): 1.25 mg/mL; MIC (C. freundii CDC-0157): 1.56; MIC [6]: 3.13; MIC (S. agalactiae ATCC-13813): 0.78; MIC [7]: 0.8 mg/mL; MIC (A. baumannii ATCC-19606): 1.56 |
| CCCCOP(=O)(O)OC[C@H]1O[C@@H](n2ccc(N(C)C)nc2=O)C(F)(F)[C@@H]1O [LAK-023, (2R,3S,5R)-5-(4-N,N-dimethylamino-2-oxopyrimidin-1(2H)-yl)-2,2-difluoro-3-hydroxytetrahydrofuranyl-2-methyl butyl phosphate] | 3.13 | 6.25 | 0.78 | 0.39 | 0.78 | 0.78 | > 12.5 | 1.56 | 1.56 | 0.78 | 0.78 | 1.56 | 3.13 | 0.39 | 1.56 | 1.56 | 1.56 | 3.13 | 1.56 | 0.78 | MIC (S. aureus ATCC -3591): 6.25; MIC [5]: 3.8 mg/mL; MIC (Escherichia coli (25922)): 0.8 mg/mL; MIC (C. freundii CDC-0157): 1.56; MIC [6]: 0.78; MIC (S. agalactiae ATCC-13813): 0.39; MIC [7]: 0.4 mg/mL; MIC (A. baumannii ATCC-19606): 0.78 |
| CCCCOP(=O)(O)OC[C@H]1O[C@@H](n2ccc(N)nc2=O)C[C@@H]1O [R-1, (2R,3S,5R)-5-(4-amino-2-oxopyrimidin-1(2H)-yl)-3-hydroxytetrahydrofuran-2-methyl butyl phosphate] |  |  |  |  |  |  |  |  |  |  |  |  |  |  |  |  |  |  |  |  | MIC [8]: 25 mg/mL; MIC [9]: 25 mg/mL; MIC (Escherichia coli (6260)): 50 mg/mL; MIC (Escherichia coli (6259)): 50 mg/mL; MIC (Escherichia coli (6258)): 50 mg/mL; MIC [10]: 25 mg/mL; MIC [11]: 25 mg/mL; MIC (Escherichia coli (6098)): 50 mg/mL; MIC [12]: 25 mg/mL; MIC (Escherichia coli (0102)): 50 mg/mL |
| CCCCOP(=O)(O)OC[C@H]1O[C@@H](n2ccc(N)nc2=O)[C@H](OC)[C@@H]1O [R-5, (2R,3S,4R,5R)-5-(4-amino-2-oxopyrimidin-1(2H)-yl)-3-hydroxy-4-methoxy-tetrahydrofuran-2-methyl butyl phosphate] |  |  |  |  |  |  |  |  |  |  |  |  |  |  |  |  |  |  |  |  | MIC [8]: 25 mg/mL; MIC [9]: 25 mg/mL; MIC (Escherichia coli (6260)): 100 mg/mL; MIC (Escherichia coli (6259)): 50 mg/mL; MIC (Escherichia coli (6258)): 100 mg/mL; MIC [10]: 25 mg/mL; MIC [11]: 25 mg/mL; MIC (Escherichia coli (6098)): 100 mg/mL; MIC [12]: 25 mg/mL; MIC (Escherichia coli (0102)): 50 mg/mL |
